# Measurements as given in patent publication US20160193216A1 (Nimbus Iris, Inc., priority 2012, published 2016).
# Target: T1, IRAK4 (Homo sapiens, UniProt Q9NWZ3)
# T1 sequence (Q9NWZ3 1-460): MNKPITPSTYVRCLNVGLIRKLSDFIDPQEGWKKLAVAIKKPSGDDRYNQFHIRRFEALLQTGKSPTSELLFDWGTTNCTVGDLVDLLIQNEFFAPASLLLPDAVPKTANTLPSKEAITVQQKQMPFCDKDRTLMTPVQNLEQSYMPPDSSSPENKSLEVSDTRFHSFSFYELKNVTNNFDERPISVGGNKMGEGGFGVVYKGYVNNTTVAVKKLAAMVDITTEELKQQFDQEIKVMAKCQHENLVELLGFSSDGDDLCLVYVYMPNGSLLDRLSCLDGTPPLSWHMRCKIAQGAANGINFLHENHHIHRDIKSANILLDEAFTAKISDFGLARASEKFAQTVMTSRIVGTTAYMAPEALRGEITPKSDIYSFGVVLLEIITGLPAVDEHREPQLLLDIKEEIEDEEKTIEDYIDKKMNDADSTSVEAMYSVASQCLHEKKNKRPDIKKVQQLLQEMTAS
# Experiment: IRAK-4 activity inhibition assay (Caliper)
# Type: biochemical
# Conditions: 37 μM ATP, 3.5 nM IRAK4
# Experimental: A 1× kinase base buffer was prepared from 50 mM HEPES, pH 7.5 and 0.0015% Brij-35. A stop buffer was prepared from 100 mM HEPES, pH 7.5, 0.015% Brij-35, 0.2% Coating Reagent #3, and 50 mM EDTA.
# Test compound was diluted to 50× of the final desired highest inhibitor concentration in reaction by 100% DMSO. 100 μl of this compound dilution was transferred to a well in a 96-well plate.
# Test compound was serially diluted by transferring 30 μl to 60 μl of 100% DMSO in the next well and so forth for a total of 10 concentrations. 100 μl of 100% DMSO was added to two empty wells for no compound control and no enzyme control in the same 96-well plate.
# A new 96-well plate was marked as intermediate plate. 5 μl of compound serial dilution was transferred from source plate to the corresponding wells of the intermediate plate. 45 μl of 1× kinase base buffer (KB buffer) was added to each well of the intermediate plate. The intermediate plate was placed for 10 min on a shaker.
# 5 μl of each well was transferred from the 96-well intermediate plate to a 384-well plate in duplicates. […] A2 of the 96-well plate is transferred to A3 and A4 of the 384-well plate, and so on.
# IRAK4 and DTT in 1× kinase base buffer was added.
# Assay plate already contained 5 μl of compound in 10% DMSO. Added 10 μl of 2.5× enzyme solution to each well of the 384-well assay plate, except no enzyme control wells. […] Added 10 μl of 1× kinase base buffer to no enzyme control wells in the assay plate. Incubated at room temperature for 10 min.
# Added 10 μl of 2.5× peptide solution to each well of the 384-well assay plate. […] Incubated at 28° C. for 40 minutes. Added 25 μl of stop buffer to stop reaction. Collected data on Caliper.
# Copied conversion % data from Caliper program. Converted conversion % values to percent inhibition values. Percent inhibition=(max−conversion %)/(max−min)*100, where “max” means the conversion % of DMSO control and “min” means the conversion % of no enzyme control.
# The compound numbers correspond to the compound numbers in Table 1. […] “NA” stands for “not assayed.”
row,SMILES,IC50 [µM]
1,"CN(C)[C@H]1CC[C@H](Nc2ncnc3sc4c(c23)C(CC(=O)N2CC[C@@H](O)C2)CC4)CC1 (stereo partly drawn) [Compound I-16, 2-(4-(((1r,4R)-4-(dimethylamino)cyclohexyl)amino)-6,7-dihydro-5H-cyclopenta[4,5]thieno[2,3-d]pyrimidin-5-yl)-1-((R)-3-hydroxypyrrolidin-1-yl)ethanone]",> 50
2,"CCC(O)[C@H]1CCc2sc3ncnc(O[C@H]4CC[C@H](N(C)C)CC4)c3c21 (stereo partly drawn) [Compound I-50, (S)-1-((S)-4-(((1r,4S)-4-(dimethylamino)cyclohexyl)oxy)-6,7-dihydro-5H-cyclopenta[4,5]thieno[2,3-d]pyrimidin-5-yl)propan-1-ol]",5 to 20
3,"CN(C)[C@H]1CC[C@H](Oc2ncnc3sc4c(c23)[C@@H](COCC(N)=O)CC4)CC1 [Compound I-76, 2-[[(3S)-12-[[4-(dimethylamino)cyclohexyl]oxy]-7-thia-9,11-diazatricyclo[6.4.0.0[2,6]]dodeca-1(8),2(6),9,11-tetraen-3-yl]methoxy]acetamide]",< 5
4,"CN(C)[C@H]1CC[C@H](Oc2ncnc3sc4c(c23)[C@@H](CC(=O)Nc2ccc(F)cn2)CC4)CC1 [Compound I-37, 2-[(3R)-12-[[4-(dimethylamino)cyclohexyl]oxy]-7-thia-9,11-diazatricyclo[6.4.0.0[2,6]]-dodeca-1(8),2(6),9,11-tetraen-3-yl]-N-(5-fluoropyridin-2-yl)acetamide]",< 5
5,"C[C@H](O)C[C@H]1CCc2sc3ncnc(O[C@H]4CC[C@H](N(C)CC(=O)N5CCCC5)CC4)c3c21 [Compound I-69, 2-(((1R,4r)-4-(((R)-5-((S)-2-hydroxypropyl)-6,7-dihydro-5H-cyclopenta[4,5]thieno[2,3-d]pyrimidin-4-yl)oxy)cyclohexyl)(methyl)amino)-1-(pyrrolidin-1-yl)ethanone]",< 5
6,"CC[C@]1(N(C)C)CC[C@H](Oc2ncnc3sc4c(c23)[C@@H](C[C@H](C)O)CC4)CC1 [Compound I-103, (2S)-1-[(3R)-12-[[4-(dimethylamino)-4-ethylcyclohexyl]oxy]-7-thia-9,11-diazatricyclo[6.4.0.0[2,6]]dodeca-1(12),2(6),8,10-tetraen-3-yl]propan-2-ol]",5 to 20
7,"C#CCOC[C@H]1CCc2sc3ncnc(O[C@H]4CC[C@H](N(C)C)CC4)c3c21 [Compound I-49, N,N-dimethyl-4-[[(3S)-3-[(prop-2-yn-1-yloxy)methyl]-7-thia-9,11-diazatricyclo[6.4.0.0[2,6]]dodeca-1(8),2(6),9,11-tetraen-12-yl]oxy]cyclohexan-1-amine]",< 5
8,"CN[C@H]1CC[C@H](Oc2ncnc3sc4c(c23)[C@@H](C[C@H](C#N)OC)CC4)CC1 [Compound I-81, (2R)-2-methoxy-3-[(3R)-12-[[4-(methylamino)cyclohexyl]oxy]-7-thia-9,11-diazatricyclo[6.4.0.0[2,6]]dodeca-1(8),2(6),9,11-tetraen-3-yl]propanenitrile]",5 to 20
9,"CN(C)[C@H]1CC[C@H](Nc2ncnc3sc4c(c23)C(C(=O)NCc2ccccc2)CC4)CC1 (stereo partly drawn) [Compound I-24, N-benzyl-12-[[4-(dimethylamino)cyclohexyl]amino]-7-thia-9,11-diazatricyclo[6.4.0.0̂[2,6]]dodeca-1(12),2(6),8,10-tetraene-3-carboxamide]",20 to 50
10,"CN(C)[C@H]1CC[C@H](Nc2ncnc3sc4c(c23)C(CC(=O)NCCO)CC4)CC1 (stereo partly drawn) [Compound I-26, 2-(12-[[4-(dimethylamino)cyclohexyl]amino]-7-thia-9,11-diazatricyclo[6.4.0.0̂[2,6]]dodeca-1(8),2(6),9,11-tetraen-3-yl)-N-(2-hydroxyethyl)acetamide]",5 to 20
11,"CN(C)[C@H]1CC[C@H](Nc2ncnc3sc4c(c23)C(CC(=O)N2CC[C@H](O)C2)CC4)CC1 (stereo partly drawn) [Compound I-15, 2-(4-(((1r,4S)-4-(dimethylamino)cyclohexyl)amino)-6,7-dihydro-5H-cyclopenta[4,5]thieno[2,3-d]pyrimidin-5-yl)-1-((S)-3-hydroxypyrrolidin-1-yl)ethanone]",> 50

# Continued, values first:
row,IC50 [µM],SMILES
1,5 to 20,"CC(=O)N1CCc2sc3ncnc(O[C@H]4CC[C@H](N)CC4)c3c2C1 [Compound I-197, 1-[3-[(4-aminocyclohexyl)oxy]-8-thia-4,6, 12-triazatricyclo[7.4.0.0[2,7]]trideca-1(9),2,4,6-tetraen-12-yl]ethan-1-one]"
2,< 5,"CN(C)[C@H]1CC[C@H](Oc2ncnc3sc4c(c23)[C@@H](CCC(N)=O)CCC4)CC1 [Compound I-163, 3-((R)-4-(((1r,4R)-4-(dimethylamino)cyclohexyl)oxy)-5,6,7,8-tetrahydrobenzo[4,5]thieno[2,3-d]pyrimidin-5-yl)propanamide]"
3,< 5,"CN(C)[C@H]1CC[C@H](Oc2ncnc3sc4c(c23)CC(CC(N)=O)OC4)CC1 (stereo partly drawn) [Compound I-221, 2-(3-[[4-(dimethylamino)cyclohexyl]oxy]-11-oxa-8-thia-4,6-diazatricyclo[7.4.0.0[2,7]]trideca-1(9),2(7),3,5-tetraen-12-yl)acetamide]"
4,5 to 20,"C[C@@H](O)CNC(=O)C[C@H]1CCc2sc3ncnc(O[C@H]4CC[C@H](N(C)C)CC4)c3c21 [Compound I-141, 2-((R)-4-(((1r,4R)-4-(dimethylamino)cyclohexyl)oxy)-6,7-dihydro-5H-cyclopenta[4,5]thieno[2,3-d]pyrimidin-5-yl)-N—((R)-2-hydroxypropyl)acetamide]"
5,< 5,"CC[C@H](C[C@H]1CCc2sc3ncnc(O[C@H]4CC[C@H](N(C)C)CC4)c3c21)OC [Compound I-117, 4-[[(3R)-3-[(2R)-2-methoxybutyl]-7-thia-9,11-diazatricyclo[6.4.0.0[2,6]]dodeca-1(8),2(6),9,11-tetraen-12-yl]oxy]-N,N-dimethylcyclohexan-1-amine]"
6,< 5,"NC(=O)[C@@H](O)C[C@H]1CCc2sc3ncnc(O[C@H]4CC[C@H](N5CCCC5)CC4)c3c21 [Compound I-226, (S)-2-hydroxy-3-((R)-4-(((1r,4R)-4-(pyrrolidin-1-yl)cyclohexyl)oxy)-6,7-dihydro-5H-cyclopenta[4,5]thieno[2,3-d]pyrimidin-5-yl)propanamide]"
7,< 5,"CC1(C)Cc2c(sc3ncnc(O[C@H]4CC[C@H](N5CCOCC5)CC4)c23)CO1 [Compound I-193, 12,12-dimethyl-3-[[4-(morpholin-4-yl)cyclohexyl]oxy]-11-oxa-8-thia-4,6-diazatricyclo[7.4.0.0[2,7]]trideca-1(9),2(7),3,5-tetraene]"
8,< 5,"CNC(=O)N1CCc2sc3ncnc(O[C@H]4CC[C@H](N(C)C)CC4)c3c2C1 [Compound I-169, 3-[[4-(dimethylamino)cyclohexyl]oxy]-N-methyl-8-thia-4,6,12-triazatricyclo[7.4.0.0[2,7]]trideca-1(9),2(7),3,5-tetraene-12-carboxamide]"
9,< 5,"OC[C@H]1CCc2sc3ncnc(N[C@H]4CC[C@H](N5CCOCC5)CC4)c3c2C1 [Compound I-210, [(12S)-3-[[4-(morpholin-4-yl)cyclohexyl]amino]-8-thia-4,6-diazatricyclo[7.4.0.0[2,7]]trideca-2,4,6-trien-12-yl]methanol]"
10,< 5,CC(=O)N1CCc2sc3ncnc(O[C@H]4CC[C@H](N(C)C)CC4)c3c2C1 [Compound I-167]
